Reference: patent publication US5859010A, “Factor VII -binding reagent” (Novo Nordisk A/S, priority 1996, dated 1999)
One block for each compound: values may come before it.

Tests used:
[1] = molecular target: T1, Factor VIIa/tissue factor (Homo sapiens, UniProt P08709); experiment: FVIIa/tissue factor activity measured with S2288 in presence and absence of Zn and chelator; type: biochemical; conditions: 10 nM FVIIa, 50 nM tissue factor
T1 construct: Single-chain factor VII may be converted to two-chain factor VIIa
T1 sequence (P08709 213-466 limits assumed): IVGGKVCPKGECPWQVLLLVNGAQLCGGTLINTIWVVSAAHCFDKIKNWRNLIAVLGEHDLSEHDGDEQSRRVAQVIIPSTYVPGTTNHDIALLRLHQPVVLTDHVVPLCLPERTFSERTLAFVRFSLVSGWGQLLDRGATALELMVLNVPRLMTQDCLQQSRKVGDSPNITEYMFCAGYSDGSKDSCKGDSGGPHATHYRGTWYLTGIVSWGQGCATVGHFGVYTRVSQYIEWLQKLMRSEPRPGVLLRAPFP
T1 sequence (P08709 61-212 partner limits assumed): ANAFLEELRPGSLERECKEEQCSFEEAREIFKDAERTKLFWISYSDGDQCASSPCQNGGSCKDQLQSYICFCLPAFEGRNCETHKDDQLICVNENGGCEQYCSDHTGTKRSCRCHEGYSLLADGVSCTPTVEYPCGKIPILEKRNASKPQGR
T1 sequence (P13726 33-295 partner): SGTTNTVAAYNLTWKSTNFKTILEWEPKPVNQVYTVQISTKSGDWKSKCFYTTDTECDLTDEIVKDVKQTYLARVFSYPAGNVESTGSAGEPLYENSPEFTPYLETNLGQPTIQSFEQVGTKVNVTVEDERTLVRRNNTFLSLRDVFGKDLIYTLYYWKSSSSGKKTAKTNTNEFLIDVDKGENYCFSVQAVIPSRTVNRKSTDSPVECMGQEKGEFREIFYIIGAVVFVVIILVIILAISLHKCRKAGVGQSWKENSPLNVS
Description: The activity of 10 nM FVIIa and 50 nM tissue factor in the presence and absence of Zn and chelator was measured with S2288 as described in Example 4

[2] = test system: factor VIIa; experiment: Effect of zinc and calcium ions on the activity of factor VIIa (FIG. 1A); type: biochemical; conditions: absence of tissue factor (FIG. 1A)
Text: (§1) An effect of Ca^2+ ions is not easily contemplated in this model since the binding site for Ca^2+ in the serine protease domain is not nearby. […] Since histidines are prominant in zinc coordination we further propose that one or more of the residues of His 211, His 216 and His 256 are involved in the binding of Zn^2+ ions to factor VIIa.

[3] = test system: factor VIIa-tissue factor complex; experiment: Effect of zinc and calcium ions on the activity of the factor VIIa-tissue factor complex (FIG. 1B); type: biochemical; conditions: presence of tissue factor (FIG. 1B)
Text: as §1

[4] = blood; cited from earlier work

- activity at 50 µM ([1]; 100 μM ZnCl2, 50 μM compound): 55%
- activity at 50 µM ([1]; No ZnCl2, 50 μM compound): 98%
Compound: O=C(NO)c1cc(C(=O)NO)[nH]n1 [NNC (28)]

Compound: [Zn+2] [Zn^2+]
- inhibitory effect of Zn2+ on factor VIIa activity in presence of Ca2+ [2]: partly abolished by Ca^2+ ions in a competitive manner
- inhibitory effect of Zn2+ on factor VIIa activity in presence of Ca2+ [3]: partly abolished by Ca^2+ ions in a competitive manner

Compound: heparin
- half-life [4]: approximately 80 minutes
